We go through 8 molecules from ChEMBL document CHEMBL1155276, “Anti-listerial activity and structure-activity relationships of the six major tyrocidines, cyclic decapeptides from Bacillus aneurinolyticus” (Bioorg Med Chem, 2009).

The structures appear in SMILES notation. pIC50: −log10 of the molar value. Non-standard residues stand in square brackets, D forms with d. Residues, ends and D or L forms follow the SMILES beside them. Orn = NCCC[C@H](N)C(=O)O

Assay [1] relates to Listeria monocytogenes. Briefly: Antilysterial activity against leucocin A-sensitive Listeria monocytogenes B73 assessed as bacterial lysis half life at 10 uM by broth microdilution assay. In kind it is functional, organism-based. (Dilution methods test growth across graded concentrations, often in twofold steps.)
A further assay deals with Escherichia coli. Briefly: Antibacterial activity against Escherichia coli HB101 at 200 ug/mL after 16 hrs by broth microdilution assay. The format is functional.
Assay [2] relates to Listeria monocytogenes. Briefly: Antilysterial activity against leucocin A-sensitive Listeria monocytogenes B73 assessed as bacterial lysis at 10 uM after 60 mins by broth microdilution assay. The format is functional.
Assay [3] relates to Listeria monocytogenes. Briefly: Antilysterial activity against leucocin A-sensitive Listeria monocytogenes B73 assessed as bacterial lysis per min at 10 uM by broth microdilution assay. The format is functional.
The subject of assay [4] is Micrococcus luteus. Briefly: Antibacterial activity against Micrococcus luteus NCTC 8340 after 16 hrs by broth microdilution assay. The format is functional, organism-based. The note with it: NCTC 8340, 16 h.
Assay [5] concerns Listeria monocytogenes. Briefly: Antibacterial activity against leucocin A-resistant Listeria monocytogenes B73-MR1 after 16 hrs by micro-gel well diffusion assay. The format is functional. Background: A growth-free zone around the sample is the usual read-out of agar diffusion tests.
Assay [6] concerns Micrococcus luteus. Briefly: Antibacterial activity against Micrococcus luteus NCTC 8340 after 16 hrs by micro-gel well diffusion assay. The format is functional.
Assay [7] deals with Listeria monocytogenes. Briefly: Antibacterial activity against leucocin A-sensitive Listeria monocytogenes B73 after 16 hrs by broth microdilution assay. The format is functional, organism-based. The note with it: B73, 16 h.
Assay [8] relates to Listeria monocytogenes. Briefly: Antibacterial activity against leucocin A-sensitive Listeria monocytogenes B73 after 16 hrs by micro-gel well diffusion assay. The format is functional.
For assay [9], the system named is Listeria monocytogenes. Briefly: Antibacterial activity against leucocin A-resistant Listeria monocytogenes B73-MR1 after 16 hrs by broth microdilution assay. The format is functional, organism-based. The note with it: B73-MR1, 16 h.

`CC(C)C[C@@H]1NC(=O)[C@H](CCCCN)NC(=O)[C@H](C(C)C)NC(=O)[C@H](Cc2ccc(O)cc2)NC(=O)[C@H](CCC(N)=O)NC(=O)[C@H](CC(N)=O)NC(=O)[C@@H](Cc2c[nH]c3ccccc23)NC(=O)[C@H](Cc2c[nH]c3ccccc23)NC(=O)[C@@H]2CCCN2C(=O)[C@@H](Cc2ccccc2)NC1=O` [TYROCIDINE C1]: in the assay with Listeria monocytogenes [1], the T1/2 amounted to 27.5 min. Besides, the Activity in the assay with Escherichia coli is reported as below 50%; with Listeria monocytogenes [2], 60%; in the assay with Listeria monocytogenes [3] it was 1.55%. Besides, the negative-log IC50 (pIC50) (in general, −log10 of the IC50, conventionally taken in molar units) with Micrococcus luteus [4] was 5.14; in the assay on Listeria monocytogenes [7], 5.03; with Listeria monocytogenes [9], 5.12. Also, the ICmax with Listeria monocytogenes [5] turned out to be 16 µM; in the assay with Micrococcus luteus [6] it was 15 µM; in the assay with Listeria monocytogenes [8] it was 22 µM.
Consider `CC(C)C[C@@H]1NC(=O)[C@H](CCCN)NC(=O)[C@H](C(C)C)NC(=O)[C@H](Cc2ccc(O)cc2)NC(=O)[C@H](CCC(N)=O)NC(=O)[C@H](CC(N)=O)NC(=O)[C@@H](Cc2ccccc2)NC(=O)[C@H](Cc2ccccc2)NC(=O)[C@@H]2CCCN2C(=O)[C@@H](Cc2ccccc2)NC1=O` [TYROCIDINE A] (cyclo(F[dF]NQYV[Orn]L[dF]P)), for which the T1/2 with Listeria monocytogenes [1] turned out to be 32.3 min. In addition, the Activity in the assay with Escherichia coli is reported as below 50%; in the assay with Listeria monocytogenes [2], 59%; in the assay on Listeria monocytogenes [3] it was 1.62%. The pIC50 in the assay on Micrococcus luteus [4] is 4.66; with Listeria monocytogenes [7], 4.89; in the assay on Listeria monocytogenes [9], 5.00. The figures for the ICmax with Listeria monocytogenes [5], with Micrococcus luteus [6] and in the assay with Listeria monocytogenes [8] were 16 µM, 70 µM and 25 µM, respectively.
Take `CC(C)C[C@@H]1NC(=O)[C@H](CCCCN)NC(=O)[C@H](C(C)C)NC(=O)[C@H](Cc2ccc(O)cc2)NC(=O)[C@H](CCC(N)=O)NC(=O)[C@H](CC(N)=O)NC(=O)[C@@H](Cc2ccccc2)NC(=O)[C@H](Cc2c[nH]c3ccccc23)NC(=O)[C@@H]2CCCN2C(=O)[C@@H](Cc2ccccc2)NC1=O` [TYROCIDINE B1]: in the assay with Listeria monocytogenes [1], the T1/2 turned out to be 29.6 min. Also, the Activity is recorded as below 50% with Escherichia coli, 63% in the assay with Listeria monocytogenes [2] and 1.68% with Listeria monocytogenes [3]. The results for the negative-log IC50 (pIC50) with Micrococcus luteus [4], in the assay on Listeria monocytogenes [7] and in the assay on Listeria monocytogenes [9] were 5.38, 5.09 and 5.17, respectively. For the same molecule, the ICmax is 10 µM with Listeria monocytogenes [5], 8.9 µM in the assay on Micrococcus luteus [6] and 15 µM in the assay with Listeria monocytogenes [8].
Take `CC(C)C[C@@H]1NC(=O)[C@H](CCCCN)NC(=O)[C@H](C(C)C)NC(=O)[C@H](Cc2ccc(O)cc2)NC(=O)[C@H](CCC(N)=O)NC(=O)[C@H](CC(N)=O)NC(=O)[C@@H](Cc2ccccc2)NC(=O)[C@H](Cc2ccccc2)NC(=O)[C@@H]2CCCN2C(=O)[C@@H](Cc2ccccc2)NC1=O` [TYROCIDINE A1]: in the assay on Listeria monocytogenes [1], the T1/2 turned out to be 32.2 min. In addition, the results for the Activity in the assay with Escherichia coli, in the assay with Listeria monocytogenes [2] and in the assay on Listeria monocytogenes [3] were below 50%, 62% and 1.47%, respectively. The figures for the negative logarithm of the IC50 (pIC50) with Micrococcus luteus [4], with Listeria monocytogenes [7] and with Listeria monocytogenes [9] were 4.59, 4.74 and 5.00, respectively. Also, the ICmax in the assay with Listeria monocytogenes [5] was 16 µM; in the assay on Micrococcus luteus [6], 72 µM; in the assay with Listeria monocytogenes [8], 38 µM.
On to `CC(C)C[C@@H]1NC(=O)[C@H](CCCN)NC(=O)[C@H](C(C)C)NC(=O)[C@@H]2CCCN2C(=O)[C@@H](Cc2ccccc2)NC(=O)[C@H](CC(C)C)NC(=O)[C@H](CCCN)NC(=O)[C@H](C(C)C)NC(=O)[C@@H]2CCCN2C(=O)[C@@H](Cc2ccccc2)NC1=O` [GRAMICIDIN S] (cyclo(L[dF]PV[Orn]L[dF]PV[Orn])), for which the T1/2 in the assay with Listeria monocytogenes [1] worked out at 38.5 min. In addition, the results for the Activity with Listeria monocytogenes [2] and with Listeria monocytogenes [3] were 70% and 1.61%, respectively. For the same molecule, the negative-log IC50 (pIC50) is 5.17 in the assay with Micrococcus luteus [4], 5.18 in the assay with Listeria monocytogenes [7] and 5.41 with Listeria monocytogenes [9]. In addition, the ICmax worked out at 6.2 µM in the assay with Listeria monocytogenes [5], 31 µM with Micrococcus luteus [6] and 11 µM in the assay with Listeria monocytogenes [8].
For the molecule `CC(C)C[C@@H]1NC(=O)[C@H](CCCN)NC(=O)[C@H](C(C)C)NC(=O)[C@H](Cc2ccc(O)cc2)NC(=O)[C@H](CCC(N)=O)NC(=O)[C@H](CC(N)=O)NC(=O)[C@@H](Cc2ccccc2)NC(=O)[C@H](Cc2c[nH]c3ccccc23)NC(=O)[C@@H]2CCCN2C(=O)[C@@H](Cc2ccccc2)NC1=O` [TYROCIDINE B], the T1/2 in the assay on Listeria monocytogenes [1] is 28.8 min. Besides, the Activity was below 50% in the assay on Escherichia coli, 64% in the assay with Listeria monocytogenes [2] and 1.53% in the assay with Listeria monocytogenes [3]. Moreover, the pIC50 with Micrococcus luteus [4] was 5.19; in the assay on Listeria monocytogenes [7] it was 5.00; in the assay on Listeria monocytogenes [9], 5.11. For the same molecule, the figures for the ICmax in the assay on Listeria monocytogenes [5], with Micrococcus luteus [6] and in the assay with Listeria monocytogenes [8] were 12 µM, 9.9 µM and 15 µM, respectively.
For the molecule `CC(C)C[C@@H]1NC(=O)[C@H](CCCN)NC(=O)[C@H](C(C)C)NC(=O)[C@H](Cc2ccc(O)cc2)N[C@@H](CCC(=O)O)C(=O)N[C@@H](CC(N)=O)C(=O)[C@@H](Cc2ccccc2)NC(=O)[C@H](Cc2ccccc2)NC(=O)[C@@H]2CCCN2C(=O)[C@@H](Cc2ccccc2)NC1=O` [TYROTHRICIN], the values for the IC50 with Micrococcus luteus [4], with Listeria monocytogenes [7] and in the assay with Listeria monocytogenes [9] were 3.5 mg/L, 12 mg/L and 9.7 mg/L, respectively. The ICmax in the assay on Listeria monocytogenes [5] turned out to be 29 µg/mL; with Micrococcus luteus [6] it was 6.3 µg/mL; with Listeria monocytogenes [8] it was 21 µg/mL.
Consider `CC(C)C[C@@H]1NC(=O)[C@H](CCCN)NC(=O)[C@H](C(C)C)NC(=O)[C@H](Cc2ccc(O)cc2)NC(=O)[C@H](CCC(N)=O)NC(=O)[C@H](CC(N)=O)NC(=O)[C@@H](Cc2c[nH]c3ccccc23)NC(=O)[C@H](Cc2c[nH]c3ccccc23)NC(=O)[C@@H]2CCCN2C(=O)[C@@H](Cc2ccccc2)NC1=O` [TYROCIDINE C], for which the T1/2 in the assay on Listeria monocytogenes [1] came to 31.2 min. The Activity with Escherichia coli was below 50%; in the assay on Listeria monocytogenes [2], 66%; in the assay with Listeria monocytogenes [3] it was 1.48%. For the same molecule, the pIC50 in the assay on Micrococcus luteus [4] was 5.19; in the assay with Listeria monocytogenes [7], 5.02; in the assay on Listeria monocytogenes [9], 5.15. The ICmax in the assay with Listeria monocytogenes [5] was determined as 11 µM; in the assay with Micrococcus luteus [6] it was 9 µM; in the assay with Listeria monocytogenes [8], 13 µM.
